The target in assay [1] is T1, IRAK4 (Homo sapiens, UniProt Q9NWZ3).
T1 sequence (Q9NWZ3 1-460): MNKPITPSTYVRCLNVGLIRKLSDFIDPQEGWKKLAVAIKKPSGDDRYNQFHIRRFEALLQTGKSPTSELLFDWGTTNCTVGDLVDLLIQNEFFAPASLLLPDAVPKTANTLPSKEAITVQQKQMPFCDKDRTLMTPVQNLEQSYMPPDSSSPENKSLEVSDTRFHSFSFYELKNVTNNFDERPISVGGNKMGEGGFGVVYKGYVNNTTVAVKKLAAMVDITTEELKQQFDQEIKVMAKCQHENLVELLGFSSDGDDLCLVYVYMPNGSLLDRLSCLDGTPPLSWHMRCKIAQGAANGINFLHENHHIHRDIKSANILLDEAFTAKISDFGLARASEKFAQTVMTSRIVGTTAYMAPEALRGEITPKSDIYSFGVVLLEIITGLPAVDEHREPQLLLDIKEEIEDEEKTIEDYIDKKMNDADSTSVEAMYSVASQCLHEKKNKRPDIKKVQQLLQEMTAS
Nature of the assay: ALE THP1 HTRF (IRAK4 in THP1 cell lysates, Homogeneous Time Resolved Fluorescence). It is filed as cell-based. Further details: THP1 Homogeneous Time Resolved Fluorescence (ALE THP1 HTRF) Procedure; endogenous in cells; host or cells: THP1. To be noted: THP1 cells. The procedure:
Cell culture media was prepared in a tissue culture hood in a sterile environment by adding 10% FBS and 1% Penicillin Streptomycin to 500 mL no phenol red RPMI 1640 media. The media was filtered through a Nalgene Bottle Top Filter and stored at 4° C.
For Homogenous Time Resolved Fluorescence (HTRF) assays, a Cisbio HTRF kit was used, which included: Lysis Buffer #1 4×, Blocking Reagent #3 100×, 20× Antibody 1 (Anti-IRAK4 d2), 20× Antibody 2 (Anti-IRAK4 k), and Detection Buffer.
4× Lysis Buffer was stored at 4° C. For use as 1× Lysis buffer, the 4× solution was diluted with de-ionized water (distilled water, Gibco Cat. #15230279) and 100× Blocking Reagent in a 1:3:0.04 volume ratio.
20× Antibody Solution aliquots were stored in −80° C. and the Detection Buffer was stored in 4° C. For use as a 1× Antibody Solution, the 20× Antibody Solution aliquot was diluted with Detection Buffer in a 1:19 volume ratio.
Cells were lysed at room temperature for 45 min with shaking. A BCA protein assay was performed and normalization was conducted to the desired total protein concentration with 1× lysis buffer. Next, 1× Antibody Solutions were prepared by adding 380 μL Detection Buffer to 20 μL 20× Antibody Solution aliquots and mixing well. 1× Antibody Solutions were combined 1:1 and briefly vortexed. For control wells, 20 μL 1× anti IRAK4-k Antibody Solution was saved. The 384-well plate (ProxiPlate-384 Plus, Perkin Elmer Cat. #6008289) was loaded by adding 4 μL of the mixed Antibody Solution to empty wells using a single channel repeater. Using a multi-channel repeater, 16 μL lysate was added per well, and any bubbles that were formed were popped with 20 μL pipette tips and Kimwipe edges. In column 10, triplicates of each control was prepared. In wells A10, B10, and C10, buffer control was prepared by adding 16 μL Lysis Buffer and 4 μL Detection Buffer. In wells D10, E10, and F10, cryptate control was prepared by adding 16 μL Lysis Buffer, 2 μL Detection Buffer, and 2 μL 1× anti IRAK4-k Antibody Solution. In wells G10, H10, and 110, a negative control was prepared by adding 16 μL Lysis Buffer and 4 μL mixed Antibody Solution. The plate was sealed with a clear seal and covered with an aluminum lid. The plate was spun down at 800 g for 5 min and incubated in the dark at room temperature overnight. The next day, the plate was spun down at 800 g for 5 min. The samples were analyzed by a plate reader (Envision, PerkinElmer) using the Desnor 384 HTRF program.

In assay [2] the target is T1, IRAK4. The assay can be described thus: IRAK4 PhosphoSens Biochemical Assay (BIOCHEM). Particulars: 200 μM ATP, 10 μM peptide substrate AQT0326, 1 nM IRAK4, room temperature, 240 minutes.

Structures are written as SMILES. Structures can show the parent of a compound that is named as a salt. A value given as a limit tells only on which side of the number the result lay.

Consider `Cn1nc(C2CCC(=O)NC2=O)c2ccc(NC3CCN(C(=O)[C@H]4CC[C@H](n5cc(NC(=O)c6cnn7ccc(N8C[C@H](N)C[C@@H](F)C8)nc67)c(C(F)F)n5)CC4)CC3)cc21` (some centres unmarked) [P-1], for which the EC50 on IRAK4 [1] is more than 10000 nM. Moreover, on IRAK4 [2], it took 0.5 nM to reach half-maximal inhibition (IC50).

The molecule `Cn1nc(C2CCC(=O)NC2=O)c2ccc(N3CCC(NC(=O)[C@H]4CC[C@H](n5cc(NC(=O)c6cnn7ccc(N8C[C@H](N)C[C@@H](F)C8)nc67)c(C(F)F)n5)CC4)CC3)cc21` (stereo partly drawn) [P-4, 5-((3R,5R)-3-amino-5-fluoropiperidin-1-yl)-N-(3-(difluoromethyl)-1-((1r,4r)-4-((1-(3-(2,6-dioxopiperidin-3-yl)-1-methyl-1H-indazol-6-yl)piperidin-4-yl)carbamoyl)cyclohexyl)-1H-pyrazol-4-yl)pyrazolo[1,5-a]pyrimidine-3-carboxamide hydrochloride] showed a concentration giving a half-maximal response (EC50) on IRAK4 [1] of 5.6 nM. On IRAK4 [2], this molecule had an IC50 of less than 0.5 nM.

At IRAK4 [1], `Cn1nc(C2CCC(=O)NC2=O)c2ccc(N3CCC(NC[C@H]4CC[C@H](n5cc(NC(=O)c6cnn7ccc(N8C[C@H](N)C[C@@H](F)C8)nc67)c(C(F)F)n5)CC4)CC3)cc21` (stereo partly drawn) [P-5, 5-((3R,5R)-3-Amino-5-fluoropiperidin-1-yl)-N-(3-(difluoromethyl)-1-((1r,4r)-4-(((1-(3-(2,6-dioxopiperidin-3-yl)-1-methyl-1H-indazol-6-yl)piperidin-4-yl)amino)methyl)cyclohexyl)-1H-pyrazol-4-yl)pyrazolo[1,5-a]pyrimidine-3-carboxamide dihydrochloride] gave an EC50 of 5 nM. This molecule yielded an IC50 against IRAK4 [2] of less than 0.5 nM. For `Cn1nc(C2CCC(=O)NC2=O)c2cccc(N3CCC(NC(=O)[C@H]4CC[C@H](n5cc(NC(=O)c6cnn7ccc(N8C[C@H](N)C[C@@H](F)C8)nc67)c(C(F)F)n5)CC4)CC3)c21` (some centres unmarked) [P-6], the response on IRAK4 [1] was half-maximal at 5 nM (EC50). This molecule gave an IC50 on IRAK4 [2] of less than 0.5 nM. The molecule `Cn1nc(C2CCC(=O)NC2=O)c2cccc(NC3CCN(CCC4CCC(n5cc(NC(=O)c6cnn7ccc(N8C[C@H](N)C[C@@H](F)C8)nc67)c(C(F)F)n5)CC4)CC3)c21` (stereo partly drawn) [P-7, N-[3-(difluoromethyl)-1-[4-[2-[4-[[3-(2,6-dioxo-3-piperidyl)-1-methyl-indazol-7-yl]amino]-1-piperidyl]ethyl]cyclohexyl]pyrazol-4-yl]-5-[(3R,5R)-3-amino-5-fluoro-1-piperidyl]pyrazolo[1,5-a]pyrimidine-3-carboxamide bis-HCl salt] displayed an EC50 at IRAK4 [1] of 12 nM. Also, the IC50 against IRAK4 [2] is less than 0.5 nM. In the case of `Cn1nc(C2CCC(=O)NC2=O)c2cccc(N3CCN(C[C@H]4CC[C@H](n5cc(NC(=O)c6cnn7ccc(N8C[C@H](N)C[C@@H](F)C8)nc67)c(C(F)F)n5)CC4)CC3)c21` (some centres unmarked) [P-8], the midpoint of the response on IRAK4 [1], the EC50, lay at 7 nM. In addition, the IC50 against IRAK4 [2] was less than 0.5 nM. Take `Cn1nc(C2CCC(=O)NC2=O)c2cccc(NC3CCN(C(=O)[C@H]4CC[C@H](n5cc(NC(=O)c6cnn7ccc(N8C[C@H](N)C[C@@H](F)C8)nc67)c(C(F)F)n5)CC4)CC3)c21` (stereo partly drawn) [P-9, 5-((3R,5R)-3-amino-5-fluoropiperidin-1-yl)-N-(3-(difluoromethyl)-1-((1r,4r)-4-(4-((3-(2,6-dioxopiperidin-3-yl)-1-methyl-1H-indazol-7-yl)amino)piperidine-1-carbonyl)cyclohexyl)-1H-pyrazol-4-yl)pyrazolo[1,5-a]pyrimidine-3-carboxamide hydrochloride]: a half-maximal response on IRAK4 [1] (EC50) required 4 nM. Also, the IC50 against IRAK4 [2] was less than 0.5 nM.

At IRAK4 [1], `Cn1nc(C2CCC(=O)NC2=O)c2ccc(N3CCN(CC[C@H]4CC[C@H](n5cc(NC(=O)c6cnn7ccc(N8C[C@H](N)C[C@@H](F)C8)nc67)c(C(F)F)n5)CC4)CC3)cc21` (some centres unmarked) [P-10] displayed an EC50 of 14 nM. Besides, the IC50 on IRAK4 [2] is less than 0.5 nM. `Cn1nc(C2CCC(=O)NC2=O)c2cccc(N3CCN(CCC4CCC(n5cc(NC(=O)c6cnn7ccc(N8C[C@H](N)C[C@@H](F)C8)nc67)c(C(F)F)n5)CC4)CC3)c21` (some centres unmarked) [P-11]: the EC50 at IRAK4 [1] is 17 nM. On IRAK4 [2], this molecule yielded an IC50 of less than 0.5 nM. On IRAK4 [1], `Cn1nc(C2CCC(=O)NC2=O)c2ccc(NC3CC4(C3)CN(CC3CCC(n5cc(NC(=O)c6cnn7ccc(N8C[C@H](N)C[C@@H](F)C8)nc67)c(C(F)F)n5)CC3)C4)cc21` (some centres unmarked) [P-12] had an EC50 of 6 nM. The same molecule gave an IC50 at IRAK4 [2] of less than 0.5 nM. As for `Cn1nc(C2CCC(=O)NC2=O)c2ccc(NC3CN(C[C@H]4CC[C@H](n5cc(NC(=O)c6cnn7ccc(N8C[C@H](N)C[C@@H](F)C8)nc67)c(C(F)F)n5)CC4)C3)cc21` (some centres unmarked) [P-13], the response at IRAK4 [1] was half-maximal at 1 nM (EC50). At IRAK4 [2], the IC50 was less than 0.5 nM. With `Cn1nc(C2CCC(=O)NC2=O)c2ccc(N3CCN(C[C@H]4CC[C@H](n5cc(NC(=O)c6cnn7ccc(N8C[C@H](N)C[C@@H](F)C8)nc67)c(C(F)F)n5)CC4)CC3)cc21` (some centres unmarked) [P-14], the EC50 on IRAK4 [1] is more than 10000 nM. In addition, at IRAK4 [2], the IC50 was less than 0.5 nM. Take `Cn1nc(C2CCC(=O)NC2=O)c2cccc(N3CCC(NC[C@H]4CC[C@H](n5cc(NC(=O)c6cnn7ccc(N8C[C@H](N)C[C@@H](F)C8)nc67)c(C(F)F)n5)CC4)CC3)c21` (some centres unmarked) [P-15]: the response on IRAK4 [1] was half-maximal at 10 nM (EC50). The IC50 at IRAK4 [2] is less than 0.5 nM. For `Cn1nc(C2CCC(=O)NC2=O)c2ccc(NC3CCN(CC[C@H]4CC[C@H](n5cc(NC(=O)c6cnn7ccc(N8C[C@H](N)C[C@@H](F)C8)nc67)c(C(F)F)n5)CC4)CC3)cc21` (some centres unmarked) [P-16], in that order: 5 nM and less than 0.5 nM. Consider `Cn1nc(C2CCC(=O)NC2=O)c2ccc(C(=O)N3CCN(C[C@H]4CC[C@H](n5cc(NC(=O)c6cnn7ccc(N8C[C@H](N)C[C@@H](F)C8)nc67)c(C(F)F)n5)CC4)CC3)cc21` (some centres unmarked) [P-17], for which it took 1 nM to reach a half-maximal effect at IRAK4 [1] (EC50). Moreover, at IRAK4 [2], the IC50 is less than 0.5 nM. In the case of `Cn1nc(C2CCC(=O)NC2=O)c2ccc(NC3CCN(CC4CCC(n5cc(NC(=O)c6cnn7ccc(N8C[C@H](N)C[C@H](F)C8)nc67)c(C(F)F)n5)CC4)CC3)cc21` (some centres unmarked) [P-19], the midpoint of the response on IRAK4 [1], the EC50, lay at 5 nM. Further, the IC50 on IRAK4 [2] is less than 0.5 nM. For `Cn1nc(C2CCC(=O)NC2=O)c2ccc(NC3CCN(C[C@H]4CC[C@H](n5cc(NC(=O)c6cnn7ccc(N8C[C@H](N)CC(F)(F)C8)nc67)c(C(F)F)n5)CC4)CC3)cc21` (some centres unmarked) [P-20], in that order: 5 nM and less than 0.5 nM. In the case of `Cn1nc(C2CCC(=O)NC2=O)c2ccc(N[C@@H]3CCN(CC4CCC(n5cc(NC(=O)c6cnn7ccc(N8C[C@H](N)C[C@@H](F)C8)nc67)c(C(F)F)n5)CC4)C[C@H]3F)cc21` (some centres unmarked) [P-22], on IRAK4 [1], the EC50 came to 5 nM. Further, at IRAK4 [2], the IC50 is less than 0.5 nM. `Cn1nc(C2CCC(=O)NC2=O)c2ccc(N[C@H]3CCN(C[C@H]4CC[C@H](n5cc(NC(=O)c6cnn7ccc(N8C[C@H](N)C[C@@H](F)C8)nc67)c(C(F)F)n5)CC4)C[C@H]3F)cc21` (some centres unmarked) [P-23] registered an EC50 on IRAK4 [1] of 4 nM. In addition, the IC50 against IRAK4 [2] was less than 0.5 nM. Molecule `Cn1nc(C2CCC(=O)NC2=O)c2ccc(OC3CCN(C[C@H]4CC[C@H](n5cc(NC(=O)c6cnn7ccc(N8C[C@H](N)C[C@@H](F)C8)nc67)c(C(F)F)n5)CC4)CC3)cc21` (some centres unmarked) [P-26] showed an EC50 at IRAK4 [1] of 11 nM. On IRAK4 [2], this molecule came in with an IC50 of less than 0.5 nM.

At IRAK4 [1], `Cc1ccc(Nc2ccn3ncc(C(=O)Nc4cn([C@H]5CC[C@H](CN(C)C6CCN(c7ccc8c(C9CCC(=O)NC9=O)nn(C)c8c7)CC6)CC5)nc4C(F)F)c3n2)cn1` (some centres unmarked) [P-48] came in with a concentration for a half-maximal effect (EC50) of 3510 nM.

In general, EC50 refers to the concentration that produces a half-maximal response. Low readings indicate greater potency, high ones weaker potency. The IC50 is the concentration that gives 50% inhibition. The low end stands for greater potency, the high end for weaker potency.

For the origin of these results see patent US20260327232A1, “Heteroaryl Compounds as Ligand Directed Degraders of IRAK4” (Celgene Corporation, priority 2023, published 2026).
